Results published in ChEMBL document CHEMBL4507296 (2021).

Key:
[1] = molecular target: Voltage-gated sodium channel (Na+ channel, site 2) (Rattus norvegicus, UniProt F1LQQ7+O08562+O88420+O88457+P04774+P04775+P08104+P15389+P15390+Q62968); assay: Na+ channel (site 2) (rat) CEREP ligand profiling; assay type: protein assay; settings: compound concentration 10 uM
[2] = molecular target: T1, Alpha-2B adrenergic receptor (Homo sapiens) (UniProt P18089); assay: Adrenergic a2b (human) CEREP ligand profiling; settings: Compound concentration 10.0 uM
T1 sequence (whole entry): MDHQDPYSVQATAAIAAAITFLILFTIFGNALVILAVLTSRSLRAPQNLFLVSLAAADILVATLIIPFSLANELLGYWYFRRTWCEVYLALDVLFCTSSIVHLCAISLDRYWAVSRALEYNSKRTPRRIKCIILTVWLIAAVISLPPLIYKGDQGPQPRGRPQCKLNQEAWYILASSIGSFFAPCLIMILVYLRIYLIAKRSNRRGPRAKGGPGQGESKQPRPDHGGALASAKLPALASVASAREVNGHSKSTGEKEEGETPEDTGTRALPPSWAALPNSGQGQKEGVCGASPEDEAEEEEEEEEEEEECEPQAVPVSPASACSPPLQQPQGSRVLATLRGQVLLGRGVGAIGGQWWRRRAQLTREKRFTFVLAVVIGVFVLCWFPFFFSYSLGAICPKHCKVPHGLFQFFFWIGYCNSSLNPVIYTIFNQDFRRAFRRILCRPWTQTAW

[3] = molecular target: Prostaglandin G/H synthase 2 (Homo sapiens) (UniProt P35354); assay: Cyclooxygenase 2 (human) CEREP ligand profiling; settings: Compound concentration 10.0 uM
[4] = system: ALK tyrosine kinase receptor (Homo sapiens), Q9UM73 [C1156Y]; settings: Compound concentration 1000.0 nM
[5] = molecular target: Protein-tyrosine kinase 6 (Homo sapiens) (UniProt Q13882); settings: Compound concentration 1000.0 nM
[6] = molecular target: Cyclin-dependent kinase 11B (Homo sapiens) (UniProt P21127); settings: Compound concentration 1000.0 nM
[7] = molecular target: Cyclin-dependent kinase 11A (Homo sapiens) (UniProt Q9UQ88); settings: Compound concentration 1000.0 nM
[8] = molecular target: Cyclin-dependent kinase 4 (Homo sapiens) (UniProt P11802); settings: Compound concentration 1000.0 nM
Chain of Cyclin-dependent kinase 4 (Homo sapiens) (P11802 whole entry, canonical isoform): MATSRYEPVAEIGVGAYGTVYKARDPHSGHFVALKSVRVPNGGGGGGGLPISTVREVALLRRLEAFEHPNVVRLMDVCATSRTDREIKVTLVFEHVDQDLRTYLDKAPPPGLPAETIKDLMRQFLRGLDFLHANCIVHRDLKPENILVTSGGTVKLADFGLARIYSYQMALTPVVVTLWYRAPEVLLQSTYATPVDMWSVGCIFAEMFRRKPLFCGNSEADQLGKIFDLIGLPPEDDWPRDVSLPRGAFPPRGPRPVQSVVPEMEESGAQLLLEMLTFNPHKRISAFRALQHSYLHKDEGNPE

[9] = molecular target: Casein kinase I isoform gamma-2 (Homo sapiens) (UniProt P78368); settings: Compound concentration 1000.0 nM
[10] = molecular target: Serine/threonine-protein kinase 17B (Homo sapiens) (UniProt O94768); settings: Compound concentration 1000.0 nM
[11] = system: Epidermal growth factor receptor (Homo sapiens), P00533 [L858R]; settings: Compound concentration 1000.0 nM
[12] = system: Epidermal growth factor receptor (Homo sapiens), P00533 [L861Q]; settings: Compound concentration 1000.0 nM
[13] = molecular target: Mitogen-activated protein kinase 15 (Homo sapiens) (UniProt Q8TD08); settings: Compound concentration 1000.0 nM
Chain of Mitogen-activated protein kinase 15 (Homo sapiens) (Q8TD08 whole entry): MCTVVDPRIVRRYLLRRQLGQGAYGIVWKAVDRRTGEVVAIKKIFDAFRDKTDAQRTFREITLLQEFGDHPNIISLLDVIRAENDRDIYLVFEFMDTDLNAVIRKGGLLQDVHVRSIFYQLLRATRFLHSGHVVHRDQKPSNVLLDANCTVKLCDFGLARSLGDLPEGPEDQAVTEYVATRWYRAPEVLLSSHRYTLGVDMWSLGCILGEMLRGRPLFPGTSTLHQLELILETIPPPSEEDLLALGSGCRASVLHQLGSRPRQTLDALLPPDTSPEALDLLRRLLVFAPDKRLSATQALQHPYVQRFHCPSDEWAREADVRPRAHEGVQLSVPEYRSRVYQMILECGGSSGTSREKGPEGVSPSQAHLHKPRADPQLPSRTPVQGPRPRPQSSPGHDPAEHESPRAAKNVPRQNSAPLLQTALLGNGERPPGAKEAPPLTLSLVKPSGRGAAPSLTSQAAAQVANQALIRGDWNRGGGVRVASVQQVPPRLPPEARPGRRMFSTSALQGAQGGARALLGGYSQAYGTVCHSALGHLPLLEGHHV

[14] = molecular target: Fibroblast growth factor receptor 2 (Homo sapiens) (UniProt P21802); settings: Compound concentration 1000.0 nM
[15] = system: Receptor-type tyrosine-protein kinase FLT3 (Homo sapiens), P36888 [UNDEFINED MUTATION]; settings: Compound concentration 1000.0 nM
Chain of Receptor-type tyrosine-protein kinase FLT3 (Homo sapiens), P36888 [UNDEFINED MUTATION] (P36888 whole entry, looked up, change not shown): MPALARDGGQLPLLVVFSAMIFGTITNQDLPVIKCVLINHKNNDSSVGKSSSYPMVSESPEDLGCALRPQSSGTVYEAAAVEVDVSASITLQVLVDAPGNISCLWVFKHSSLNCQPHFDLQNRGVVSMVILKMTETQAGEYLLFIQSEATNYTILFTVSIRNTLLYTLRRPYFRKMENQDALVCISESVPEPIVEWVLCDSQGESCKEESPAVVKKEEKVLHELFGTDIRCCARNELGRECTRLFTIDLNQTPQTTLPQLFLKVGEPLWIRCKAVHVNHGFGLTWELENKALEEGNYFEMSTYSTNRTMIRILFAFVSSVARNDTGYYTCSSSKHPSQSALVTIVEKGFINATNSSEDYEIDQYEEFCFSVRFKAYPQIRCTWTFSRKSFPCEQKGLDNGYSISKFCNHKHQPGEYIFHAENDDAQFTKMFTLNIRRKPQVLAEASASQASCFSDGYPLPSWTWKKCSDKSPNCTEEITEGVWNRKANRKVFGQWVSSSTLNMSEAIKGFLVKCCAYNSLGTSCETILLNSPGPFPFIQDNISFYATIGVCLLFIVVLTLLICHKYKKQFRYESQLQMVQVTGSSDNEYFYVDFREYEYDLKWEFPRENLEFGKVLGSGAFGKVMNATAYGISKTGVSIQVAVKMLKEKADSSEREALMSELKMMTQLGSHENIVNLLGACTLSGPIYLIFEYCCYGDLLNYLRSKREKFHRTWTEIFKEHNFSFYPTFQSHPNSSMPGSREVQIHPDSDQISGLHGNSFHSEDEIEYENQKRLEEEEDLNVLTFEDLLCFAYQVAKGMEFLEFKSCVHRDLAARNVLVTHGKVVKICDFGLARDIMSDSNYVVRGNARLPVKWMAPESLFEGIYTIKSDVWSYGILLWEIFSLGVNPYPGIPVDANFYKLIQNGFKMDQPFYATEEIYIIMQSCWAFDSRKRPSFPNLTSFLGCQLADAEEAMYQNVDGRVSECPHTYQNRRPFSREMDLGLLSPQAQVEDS

[16] = molecular target: Cyclin-G-associated kinase (Homo sapiens) (UniProt O14976); settings: Compound concentration 1000.0 nM
Chain of Cyclin-G-associated kinase (Homo sapiens) (O14976 whole entry): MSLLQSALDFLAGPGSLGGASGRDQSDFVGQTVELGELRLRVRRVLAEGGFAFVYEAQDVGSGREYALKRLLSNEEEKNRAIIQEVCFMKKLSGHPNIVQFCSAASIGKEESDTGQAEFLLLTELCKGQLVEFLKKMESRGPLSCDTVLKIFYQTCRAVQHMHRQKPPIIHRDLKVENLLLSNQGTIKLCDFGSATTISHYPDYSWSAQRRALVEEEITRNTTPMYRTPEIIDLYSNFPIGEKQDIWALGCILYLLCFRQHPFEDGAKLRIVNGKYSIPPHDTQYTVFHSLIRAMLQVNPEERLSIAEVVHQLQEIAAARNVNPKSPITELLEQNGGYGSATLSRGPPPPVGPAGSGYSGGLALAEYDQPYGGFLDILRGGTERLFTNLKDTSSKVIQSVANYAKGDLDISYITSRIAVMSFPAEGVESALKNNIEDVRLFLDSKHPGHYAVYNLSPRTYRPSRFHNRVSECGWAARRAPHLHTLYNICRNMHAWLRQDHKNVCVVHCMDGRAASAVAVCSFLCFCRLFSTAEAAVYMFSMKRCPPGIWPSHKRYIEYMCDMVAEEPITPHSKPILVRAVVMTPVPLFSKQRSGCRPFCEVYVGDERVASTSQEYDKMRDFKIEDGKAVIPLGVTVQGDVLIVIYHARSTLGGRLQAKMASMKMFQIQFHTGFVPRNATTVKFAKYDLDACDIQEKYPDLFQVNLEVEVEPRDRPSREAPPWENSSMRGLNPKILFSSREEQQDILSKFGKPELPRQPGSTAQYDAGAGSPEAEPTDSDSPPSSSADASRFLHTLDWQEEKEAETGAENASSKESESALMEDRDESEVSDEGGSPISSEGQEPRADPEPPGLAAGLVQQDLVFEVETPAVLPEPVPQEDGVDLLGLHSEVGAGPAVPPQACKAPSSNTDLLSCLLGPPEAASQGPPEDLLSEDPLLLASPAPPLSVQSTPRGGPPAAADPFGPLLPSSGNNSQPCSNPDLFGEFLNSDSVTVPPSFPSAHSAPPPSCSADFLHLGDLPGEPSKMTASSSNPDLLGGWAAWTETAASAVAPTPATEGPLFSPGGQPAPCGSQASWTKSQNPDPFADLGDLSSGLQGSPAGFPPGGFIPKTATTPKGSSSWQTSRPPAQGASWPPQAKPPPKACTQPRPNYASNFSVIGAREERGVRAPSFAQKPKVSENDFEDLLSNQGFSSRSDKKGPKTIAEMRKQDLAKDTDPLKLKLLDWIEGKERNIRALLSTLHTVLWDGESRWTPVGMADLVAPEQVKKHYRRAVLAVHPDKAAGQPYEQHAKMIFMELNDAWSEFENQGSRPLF

[17] = system: eIF-2-alpha kinase GCN2 (Homo sapiens), Q9P2K8 [S808G]; settings: Compound concentration 1000.0 nM
[18] = molecular target: Homeodomain-interacting protein kinase 2 (Homo sapiens) (UniProt Q9H2X6); settings: Compound concentration 1000.0 nM
[19] = molecular target: Tyrosine-protein kinase ITK/TSK (Homo sapiens) (UniProt Q08881); settings: Compound concentration 1000.0 nM
[20] = molecular target: Mitogen-activated protein kinase kinase kinase kinase 3 (Homo sapiens) (UniProt Q8IVH8); settings: Compound concentration 1000.0 nM
Chain of Mitogen-activated protein kinase kinase kinase kinase 3 (Homo sapiens) (Q8IVH8 whole entry): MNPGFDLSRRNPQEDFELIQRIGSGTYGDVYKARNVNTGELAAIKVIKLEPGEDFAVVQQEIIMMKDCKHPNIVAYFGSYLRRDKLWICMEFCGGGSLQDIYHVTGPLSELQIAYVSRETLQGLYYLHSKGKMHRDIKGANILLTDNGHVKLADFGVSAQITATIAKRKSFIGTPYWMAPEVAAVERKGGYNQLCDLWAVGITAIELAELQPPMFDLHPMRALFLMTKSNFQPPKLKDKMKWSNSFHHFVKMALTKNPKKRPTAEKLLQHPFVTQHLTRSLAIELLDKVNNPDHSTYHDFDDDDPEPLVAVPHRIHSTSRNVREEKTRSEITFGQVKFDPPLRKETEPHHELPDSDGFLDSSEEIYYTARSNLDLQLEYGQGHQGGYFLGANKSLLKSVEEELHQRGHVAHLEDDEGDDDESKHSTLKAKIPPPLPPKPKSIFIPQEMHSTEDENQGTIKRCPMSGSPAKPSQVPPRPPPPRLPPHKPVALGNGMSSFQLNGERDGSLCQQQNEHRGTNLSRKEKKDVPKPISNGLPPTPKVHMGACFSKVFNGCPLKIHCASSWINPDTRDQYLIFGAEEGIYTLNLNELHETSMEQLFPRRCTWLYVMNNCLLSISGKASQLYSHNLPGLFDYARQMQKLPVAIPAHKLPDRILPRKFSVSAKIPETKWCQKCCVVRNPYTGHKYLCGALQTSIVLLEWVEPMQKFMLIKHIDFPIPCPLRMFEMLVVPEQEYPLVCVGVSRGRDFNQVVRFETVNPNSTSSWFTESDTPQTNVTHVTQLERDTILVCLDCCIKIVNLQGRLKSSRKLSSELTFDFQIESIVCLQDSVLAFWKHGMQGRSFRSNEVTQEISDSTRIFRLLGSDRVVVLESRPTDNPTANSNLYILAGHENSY

[21] = molecular target: Maternal embryonic leucine zipper kinase (Homo sapiens) (UniProt Q14680); settings: Compound concentration 1000.0 nM
[22] = molecular target: Serine/threonine-protein kinase 26 (Homo sapiens) (UniProt Q9P289); settings: Compound concentration 1000.0 nM
Chain of Serine/threonine-protein kinase 26 (Homo sapiens) (Q9P289 2-416 limits assumed): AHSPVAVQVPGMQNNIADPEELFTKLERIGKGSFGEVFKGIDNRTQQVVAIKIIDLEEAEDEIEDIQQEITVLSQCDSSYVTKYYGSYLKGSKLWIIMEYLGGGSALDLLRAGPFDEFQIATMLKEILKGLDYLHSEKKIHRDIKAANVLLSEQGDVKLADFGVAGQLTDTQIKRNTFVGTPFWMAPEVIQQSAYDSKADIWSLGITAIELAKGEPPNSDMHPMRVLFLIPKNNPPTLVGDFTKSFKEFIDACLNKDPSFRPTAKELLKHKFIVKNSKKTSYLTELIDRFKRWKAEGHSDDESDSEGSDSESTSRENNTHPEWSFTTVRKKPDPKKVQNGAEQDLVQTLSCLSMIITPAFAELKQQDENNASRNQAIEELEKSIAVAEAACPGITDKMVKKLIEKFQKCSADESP

[23] = molecular target: Serine/threonine-protein kinase Nek11 (Homo sapiens) (UniProt Q8NG66); settings: Compound concentration 1000.0 nM
[24] = molecular target: Mitogen-activated protein kinase kinase kinase 14 (Homo sapiens) (UniProt Q99558); settings: Compound concentration 1000.0 nM
[25] = molecular target: Serine/threonine-protein kinase NIM1 (Homo sapiens) (UniProt Q8IY84); settings: Compound concentration 1000.0 nM
[26] = molecular target: Serine/threonine-protein kinase OSR1 (Homo sapiens) (UniProt O95747); settings: Compound concentration 1000.0 nM
[27] = molecular target: Mitogen-activated protein kinase 12 (Homo sapiens) (UniProt P53778); settings: Compound concentration 1000.0 nM
[28] = molecular target: Phosphorylase b kinase gamma catalytic chain, skeletal muscle/heart isoform (Homo sapiens) (UniProt Q16816); settings: Compound concentration 1000.0 nM
[29] = system: Phosphatidylinositol 4,5-bisphosphate 3-kinase catalytic subunit alpha isoform (Homo sapiens), P42336 [E542K]; settings: Compound concentration 1000.0 nM
[30] = molecular target: cAMP-dependent protein kinase catalytic subunit beta (Homo sapiens) (UniProt P22694); settings: Compound concentration 1000.0 nM
[31] = molecular target: Serine/threonine-protein kinase PLK1 (Homo sapiens) (UniProt P53350); settings: Compound concentration 1000.0 nM
Chain of Serine/threonine-protein kinase PLK1 (Homo sapiens) (P53350 whole entry): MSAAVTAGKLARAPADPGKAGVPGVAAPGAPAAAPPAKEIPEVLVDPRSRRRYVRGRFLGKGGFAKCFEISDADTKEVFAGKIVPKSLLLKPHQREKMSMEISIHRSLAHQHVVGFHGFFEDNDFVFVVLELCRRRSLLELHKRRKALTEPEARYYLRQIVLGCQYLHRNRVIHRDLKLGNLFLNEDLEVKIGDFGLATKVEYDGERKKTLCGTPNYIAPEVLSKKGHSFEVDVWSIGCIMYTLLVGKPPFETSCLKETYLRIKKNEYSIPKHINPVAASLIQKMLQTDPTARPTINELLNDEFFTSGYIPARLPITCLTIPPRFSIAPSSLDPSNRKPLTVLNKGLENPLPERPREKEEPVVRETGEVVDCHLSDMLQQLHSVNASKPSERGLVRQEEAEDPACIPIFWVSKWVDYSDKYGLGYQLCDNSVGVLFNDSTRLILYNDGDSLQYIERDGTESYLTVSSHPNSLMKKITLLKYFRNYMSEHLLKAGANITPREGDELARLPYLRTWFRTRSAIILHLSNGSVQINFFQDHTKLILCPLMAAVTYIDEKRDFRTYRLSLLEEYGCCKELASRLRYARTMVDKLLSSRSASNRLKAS

[32] = molecular target: Ribosomal protein S6 kinase alpha-4 (Homo sapiens) (UniProt O75676); settings: Compound concentration 1000.0 nM
[33] = molecular target: Ribosomal protein S6 kinase alpha-1 (Homo sapiens) (UniProt Q15418); settings: Compound concentration 1000.0 nM
[34] = molecular target: Tyrosine-protein kinase SYK (Homo sapiens) (UniProt P43405); settings: Compound concentration 1000.0 nM
[35] = molecular target: Non-receptor tyrosine-protein kinase TYK2 (Homo sapiens) (UniProt P29597); settings: Compound concentration 1000.0 nM
[36] = molecular target: Serine/threonine-protein kinase WNK2 (Homo sapiens) (UniProt Q9Y3S1); settings: Compound concentration 1000.0 nM
[37] = molecular target: Tyrosine-protein kinase Yes (Homo sapiens) (UniProt P07947); settings: Compound concentration 1000.0 nM
[38] = molecular target: Alpha-1B adrenergic receptor (Homo sapiens) (UniProt P35368); settings: Compound concentration 10.0 uM

C[C@H](c1ccc(F)cc1)N(Cc1cccc(C(=O)O)c1)C(=O)c1cnc2ccccc2c1 [PF-05105679]
inhibition at 10 µM [1]: 32% (not active)
inhibition [2]: 21%
inhibition [3]: 21%
residual activity [4]: 69%
residual activity [5]: 83%
residual activity [6]: 84%
residual activity [7]: 100%
residual activity [8]: 97%
residual activity [9]: 100%
residual activity [10]: 80%
residual activity [11]: 100%
residual activity [12]: 100%
residual activity [13]: 93%
residual activity [14]: 74%
residual activity [15]: 99%
residual activity [16]: 98%
residual activity [17]: 100%
residual activity [18]: 100%
residual activity [19]: 84%
residual activity [20]: 90%
residual activity [21]: 100%
residual activity [22]: 79%
residual activity [23]: 82%
residual activity [24]: 100%
residual activity [25]: 79%
residual activity [26]: 100%
residual activity [27]: 65%
residual activity [28]: 88%
residual activity [29]: 49%
residual activity [30]: 82%
residual activity [31]: 79%
residual activity [32]: 85%
residual activity [33]: 100%
residual activity [34]: 87%
residual activity [35]: 100%
residual activity [36]: 96%
residual activity [37]: 100%
inhibition [38]: -0.5%
